# Data published in publication PMC8233204, “Cardiac myosin-binding protein C interaction with actin is inhibited by compounds identified in a high-throughput fluorescence lifetime screen” (The Journal of Biological Chemistry, 2021).
# Entries after “also recorded” stand apart in the source; their conditions may differ. Like-named read-outs stand apart in the source and are kept apart here.
# Assays:
# [1] = biological target: T1, FMAL-actin:TMR-C0-C2^Cys225 (Homo sapiens, UniProt Q14896, C239L/C249S/C426T/C436V/C443S/H225C); experiment: FMAL-actin-TMR-C0-C2 TR-FRET binding assay; conditions: 1 μM FMAL-actin, 2 μM TMR-C0-C2, both nonphosphorylated and phosphorylated C0-C2
# T1 construct: N-terminal domains C0 through C2 (C0-C2), containing the proline/alanine-rich linker (P/A) and the M-domain (M); 6x His (N, cleaved yes); TEV protease cleavage site (N, cleaved yes); made in house; host or cells: E. coli BL21DE3 (C0-C2^Cys225); actin purified from rabbit skeletal muscle
# T1 sequence (Q14896 1-451 H225C/C239L/C249S/C426T/C436V/C443S limits assumed): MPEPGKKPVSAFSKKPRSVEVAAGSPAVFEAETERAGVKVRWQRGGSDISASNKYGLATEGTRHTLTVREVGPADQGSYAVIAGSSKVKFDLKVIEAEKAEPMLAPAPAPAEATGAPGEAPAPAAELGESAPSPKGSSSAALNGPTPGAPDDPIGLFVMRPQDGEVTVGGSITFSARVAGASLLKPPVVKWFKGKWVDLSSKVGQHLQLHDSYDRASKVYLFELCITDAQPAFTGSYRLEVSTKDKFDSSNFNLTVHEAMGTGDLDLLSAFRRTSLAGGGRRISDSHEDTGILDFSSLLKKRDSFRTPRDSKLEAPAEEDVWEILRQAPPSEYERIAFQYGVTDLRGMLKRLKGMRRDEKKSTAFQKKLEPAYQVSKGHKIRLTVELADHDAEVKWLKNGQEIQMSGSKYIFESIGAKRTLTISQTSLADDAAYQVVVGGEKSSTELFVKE
# Protocol: In total, 1 μM F-Actin labeled (to 10%) on Cys-374 with FMAL (donor fluor) was incubated with increasing concentrations (0–20 μM) of C0-C2^Cys225 unlabeled (for donor only (D) data acquisition) or labeled to 95% with TMR (acceptor fluor) (for donor–acceptor (DA) data). Lifetimes of FMAL-actin were determined for D and DA at each concentration of C0-C2^Cys225. TR-FRET efficiency (1 – (τDA/τD)) was determined for each C0-C2^Cys225 concentration. The binding curve was generated from data from two separate preparations of actin and C0-C2^Cys225. Testing of compound effects by TR-FRET was similarly done at 1 μM FMAL-actin with unlabeled C0-C2^Cys225 (D) and TMR-C0-C2^Cys225 (DA), both at 2 μM.
# [2] = biological target: C0-C2 portion of human cMyBP-C (Homo sapiens, UniProt Q14896); experiment: Isothermal titration calorimetry (ITC) of compounds binding to C0-C2; conditions: for ITC ΔS / ITC ΔH / ITC ΔG: Table 1 average; for ITC ΔS: no unit in table (Fig. 4: J/mol•K); for ITC ΔH: no unit in table (Fig. 4: kJ/mol); for ITC ΔG: unit not given; for ITC n (stoichiometry, compound per C0-C2): average of two preparations
# Sequence of C0-C2 portion of human cMyBP-C (Q14896 1-451 limits assumed): as the sequence (Q14896 1-451 H225C/C239L/C249S/C426T/C436V/C443S limits assumed) above, with C225H, L239C, S249C, T426C, V436C, S443C counted along it
# [3] = biological target: T2, AF568-actin:C0-C2 (actin-cMyBP-C binding) (Homo sapiens, UniProt Q14896); experiment: TR-F concentration-response assay, AF568-actin with C0-C2; conditions: 2 μM C0-C2; for EC50: 1 μM AF568-actin, mean ± SE; for TR-F n: n not defined in table
# T2 sequence (Q14896 1-451 limits assumed): as the sequence (Q14896 1-451 H225C/C239L/C249S/C426T/C436V/C443S limits assumed) above, with C225H, L239C, S249C, T426C, V436C, S443C counted along it
# Protocol: (§5) Using the same conditions as in the primary screen, we determined the concentration dependence of each of the three Hit compounds on the AF568-actin lifetime effects. […] In a separate dose–response assay utilizing 3 μM C0-C2, we compared the effects of the compounds on nonphosphorylated and phosphorylated C0-C2. […] In the second dose-response assay, 3 μM instead of 2 μM C0-C2 was used in the second dose–response assay so that effects of compounds on phosphorylated C0-C2 could be readily detected, as phosphorylation of C0-C2 itself (in the absence of compounds) reduces binding to actin.
# The Hit compounds were dissolved in DMSO to make a 10 mM stock solution, which was serially diluted in 96-well mother plates. Hits were screened at eight concentrations (0.5–100 μM). Compounds (1 μl) were transferred from the mother plates into 384-well plates using a Mosquito HV liquid handler (TTP Labtech Ltd). The same procedure of dispensing as for the pilot screening was applied in the TR-F concentration–response assays. Concentration dependence of the TR-F change was fitted using the Hill equation ([38]):(3) τ=τo+τmaxC^α/EC50α+C^α where τ and τ0 are TR-F in the presence and in the absence of the compound, τmax is the maximum effect, C is the compound concentration, EC50 is the compound concentration for which 50% of maximum effect is obtained, and α is the Hill coefficient of sigmoidicity.
# C0-C2 = biological target: T3, C0-C2 (Homo sapiens, UniProt Q14896); experiment: Visible light scattering (C0-C2 aggregation); conditions: 2 or 10 μM C0-C2 mixed with compound for 20 min
# T3 construct: N-terminal domains C0 through C2 (C0-C2), containing the proline/alanine-rich linker (P/A) and the M-domain (M); 6x His (N, cleaved yes); TEV protease cleavage site (N, cleaved yes); made in house; host or cells: E. coli BL21DE3
# T3 sequence (Q14896 1-451 limits assumed): as the sequence (Q14896 1-451 H225C/C239L/C249S/C426T/C436V/C443S limits assumed) above, with C225H, L239C, S249C, T426C, V436C, S443C counted along it
# Protocol: All three drugs were tested for causing C0-C2 to aggregate by measuring absorbance in the visible range beyond the absorption of protein or the drugs themselves. Observed absorbance in these wavelengths is actually loss of transmitted light due to light scattering from aggregated C0-C2. 2 or 10 μM of C0-C2 was mixed with 20 μM of suramin, NF023, or ATA for 20 min and wavelengths 250–600 nm were scanned using a Beckman Coulter DU730 UV/Vis Spectrophotometer to determine optical density. The same was done with 2 or 10 μM of C0-C2 and 20 μM of suramin, NF023, or ATA alone.
# [4] = biological target: AF568-actin:phosphorylated (by PKA) C0-C2 (Homo sapiens, UniProt Q14896); experiment: TR-F concentration-response assay, AF568-actin with PKA-phosphorylated C0-C2; conditions: for TR-F+PKA n: 3 μM phosphorylated C0-C2, n not defined in table
# Sequence of AF568-actin:phosphorylated (by PKA) C0-C2 (Q14896 1-451 limits assumed): as the sequence (Q14896 1-451 H225C/C239L/C249S/C426T/C436V/C443S limits assumed) above, with C225H, L239C, S249C, T426C, V436C, S443C counted along it
# Protocol: as §5
# C0-C2 was treated with 7.5 ng PKA/μg C0-C2 at 30 °C for 30 min.
# The Hit compounds were dissolved in DMSO to make a 10 mM stock solution, which was serially diluted in 96-well mother plates. Hits were screened at eight concentrations (0.5–100 μM). Compounds (1 μl) were transferred from the mother plates into 384-well plates using a Mosquito HV liquid handler (TTP Labtech Ltd). The same procedure of dispensing as for the pilot screening was applied in the TR-F concentration–response assays.
# AF568-actin = biological target: T4, AF568-actin (Oryctolagus cuniculus, UniProt P68135); experiment: TR-F high-throughput screen, AF568-actin alone (no C0-C2); type: binding, rabbit; conditions: 10 μM compound; 1 μM AF568-actin alone
# T4 construct: Actin was prepared from rabbit skeletal muscle by extracting acetone powder; from tissue; host or cells: rabbit skeletal muscle (acetone powder)
# Protocol: (§1) The 1280 LOPAC compounds were received in 96-well plates (LOPAC^1280, Sigma-Aldrich) and were reformatted into 1536-well flat, black-bottom polypropylene plates (Greiner Bio-One). In total, 50 nl of compounds was dispensed using an automated Echo 550 acoustic liquid dispenser (Labcyte). LOPAC compounds were formatted into plates, with the first two and last two columns loaded with 50 nl of DMSO and used for compound-free controls. The final concentration of the compounds was 10 μM. These assay plates were then heat-sealed using a PlateLoc Thermal Microplate Sealer (Agilent Technologies) and stored at –20 °C. Before screening, compound plates were equilibrated to room temperature (25 °C). In total, 1 μM AF568-labeled actin without or with 2 μM C0-C2 in M-ABB was dispensed by a Multidrop Combi Reagent Dispenser (Thermo Fisher Scientific) into the 1536-well assay plates containing the compounds. Plates were incubated at room temperature for 20 min before recording the data with the FLTPR. Plates were rescanned after 120 min incubation.
# (§2) Two full screens were done using different batches of AF568-labeled actin, C0-C2, and test compounds.
# (§3) Following data acquisition, TR-F waveforms observed for each well were convolved with the IRF to determine the lifetime (τ) (Equation 1) by fitting to a single-exponential decay ([15], [35]).
# (§4) A compound was considered a Hit if it was in the top 25 compounds in each of two independent screenings of the LOPAC. Top compounds were those that increased the lifetime of AF568-actin when C0-C2 was present (indicating inhibition of C0-C2 binding). Compounds that altered AF568-actin lifetime when C0-C2 was not present by >4 SD relative to that of the control samples (those exposed to 0.1% DMSO) were first removed from the analysis. […] Any change in lifetime induced by a compound on AF568-actin alone was then subtracted from the effect of the compound on AF568-actin when C0-C2 was present. The resulting C0-C2-dependent change for all compounds was ranked.
# [5] = biological target: T2, AF568-actin:C0-C2 (actin-cMyBP-C binding); experiment: TR-F high-throughput screen of LOPAC library, AF568-actin with C0-C2; conditions: for Actin-MyBP-C Drug Δτ, Screen 1 / Actin-MyBP-C Drug Δτ, Screen 2 / Actin-MyBP-C Drug Δτ, Sub-optimal Screen 3 / Actin-MyBP-C Drug Δτ, Sub-optimal Screen 4 / average change in lifetime, SD above the median of all compounds not excluded: 10 μM compound, 1 μM AF568-actin, 2 μM C0-C2; for average change in lifetime, SD above the median of all compounds not excluded: average of screens; for Difference, Screen 1 / Difference, Screen 2 / Difference, Sub-optimal Screen 3 / Difference, Sub-optimal Screen 4: Δτ actin+C0-C2 after subtracting effect on actin alone
# Protocol: as §1, §2, §3, §4
# F-actin = biological target: T5, F-actin (Oryctolagus cuniculus, UniProt P68135); experiment: ITC of compounds with actin alone; type: binding, rabbit; conditions: for ITC interaction with F-actin (in words): actin alone
# T5 construct: Actin was prepared from rabbit skeletal muscle by extracting acetone powder; from tissue; host or cells: rabbit skeletal muscle (acetone powder)
# Protocol: The titration of compounds binding to cMyBP-C was performed on an Affinity ITC (TA Instruments). Each compound in M-ABB buffer (2000–3000 μM) was titrated into C0-C2 in M-ABB buffer (100 μM, 350 μl). For the titration, a preliminary 2.5-μl injection (ignored in data analysis) was followed by 19–39 subsequent 2.5-μl injections with 4 min waits between each injection. The reference cell was filled with distilled water. To account for heat changes of dilution and mechanical mixing, binding data were corrected by subtraction of the final plateau injection values (when binding is complete) prior to curve fitting. Corrected binding data was processed using the NanoAnalyze analysis software (TA Instruments).
# Figure S2. ITC of Suramin binding to actin alone. (A) Titration of 100 µM F-actin (in 350 µl) with 40 2.5
# µl injections of 3,000 µM Suramin. (B) Fitted ITC binding curve for Suramin binding. Binding to actin was
# for Suramin with actin alone (Kd ~200 µM).
# (1 picture or pasted object on this page, not shown here)
# [6] = biological target: FMAL-actin (F-actin from rabbit skeletal muscle labeled at Cys-374 with fluorescein-5-maleimide) (rabbit) (UniProt P68135); experiment: FRET or BRET; TR-FRET; 1 μM F-actin labeled (to 10%) with FMAL (donor) with 0-20 μM TMR-C0-C2^Cys225 (acceptor) ±PKA; M-ABB
# [7] = biological target: FMAL-actin (F-actin from rabbit skeletal muscle labeled at Cys-374 with fluorescein-5-maleimide) (rabbit) (UniProt P68135); experiment: as above; remark: listed apart in the source
# [8] = compound binding to C0-C2, mean ± SE, two protein preparations, read-out: ITC Kd
# [9] = single titration shown in Fig. 4
# [10] = single titration shown in Fig. 4, 100 μM C0-C2, read-out: ITC Kd (fitted curve of Figure 4)
Molecule,ITC ΔS [2],ITC ΔH [2],ITC ΔG [2],"ITC n (stoichiometry, compound per C0-C2) [2]","Kd [2, 8]","ITC n (fitted curve of Figure 4) [2, 9]","ITC ΔH (fitted curve of Figure 4) [2, 9]","ITC ΔS (fitted curve of Figure 4) [2, 9]","Kd [2, 10]",EC50 [3],TR-F n [3],"absorbance in the visible range (light scatter, C0-C2 aggregation) (C0-C2)",TR-F+PKA n [4],"Actin Drug Δτ, Screen 1 (AF568-actin)","Actin Drug Δτ, Screen 2 (AF568-actin)","Actin Drug Δτ, Sub-optimal Screen 3 (AF568-actin)","Actin Drug Δτ, Sub-optimal Screen 4 (AF568-actin)","Actin-MyBP-C Drug Δτ, Screen 1 [5]","Actin-MyBP-C Drug Δτ, Screen 2 [5]","Actin-MyBP-C Drug Δτ, Sub-optimal Screen 3 [5]",also measured
O=C(Nc1cccc(C(=O)Nc2ccc(S(=O)(=O)O)c3cc(S(=O)(=O)O)cc(S(=O)(=O)O)c23)c1)Nc1cccc(C(=O)Nc2ccc(S(=O)(=O)O)c3cc(S(=O)(=O)O)cc(S(=O)(=O)O)c23)c1 [NF023],−19.2,−30.2,−24.6,2.1,42 ± 3.4 µM,2.6,-7.43 kcal/mol,20.9 J/mol•K,35.1 µM,16.3 ± 1.2 µM,3.2,did not detect absorption,1.8,-0.03 ns,0.01 ns,-0.02 ns,0.01 ns,0.058 ns,0.07 ns,0.06 ns,"TR-FRET measured binding of C0-C2 to actin, effect of compound ([1]; 50 μM compound): almost completely eliminated; EC50 ([4]; read-out: TR-F+PKA EC50, 1 μM AF568-actin, 3 μM PKA-phosphorylated C0-C2, mean ± SE): 17.5 ± 11.8 µM; Actin-MyBP-C Drug Δτ, Sub-optimal Screen 4 [5]: 0.04 ns; average change in lifetime, SD above the median of all compounds not excluded [5]: 3.8 SD; Difference, Screen 1 [5]: 0.09 ns; Difference, Screen 2 [5]: 0.06 ns; Difference, Sub-optimal Screen 3 [5]: 0.08 ns; Difference, Sub-optimal Screen 4 [5]: 0.03 ns; ITC interaction with F-actin (in words) (F-actin): not apparent; also recorded: no interaction"
TMR-C0-C2^Cys225 (single-cysteine C0-C2 of human cMyBP-C labeled with tetramethylrhodamine at Cys225) (from UniProt Q14896 1-1274) (domain or fragment),–,–,–,–,–,–,–,–,–,–,–,–,–,–,–,–,–,–,–,–,Kd [6]: 1 µM; Kd [7]: 2.6 µM; donor lifetime τDA of FMAL-actin with 20 μM TMR-C0-C2^Cys225 (τD = 4.2 ns) [7]: 2 ns
"O=C(O)C1=CC(=C(c2ccc(O)c(C(=O)O)c2)c2ccc(O)c(C(=O)O)c2)C=CC1=O [ATA, aurintricarboxylic acid]",52.9,−10.2,−25.8,3.1,25.9 ± 2.2 µM,2.1,-2.49 kcal/mol,51.5 J/mol•K,28.1 µM,7.9 ± 1.9 µM,3.4,detected absorption,1.4,-0.04 ns,0.00 ns,-0.03 ns,0.00 ns,0.008 ns,0.06 ns,0.07 ns,"TR-FRET measured binding of C0-C2 to actin, effect of compound ([1]; 20 μM compound): almost completely eliminated; also recorded: near zero; EC50 [4]: 4.3 ± 0.9 µM; Actin-MyBP-C Drug Δτ, Sub-optimal Screen 4 [5]: 0.07 ns; average change in lifetime, SD above the median of all compounds not excluded [5]: 3.0 SD; Difference, Screen 1 [5]: 0.04 ns; Difference, Screen 2 [5]: 0.06 ns; Difference, Sub-optimal Screen 3 [5]: 0.10 ns; Difference, Sub-optimal Screen 4 [5]: 0.07 ns; ITC interaction with F-actin (in words) (F-actin): not apparent; also recorded: no interaction"
"Cc1ccc(C(=O)Nc2ccc(S(=O)(=O)O)c3cc(S(=O)(=O)O)cc(S(=O)(=O)O)c23)cc1NC(=O)c1cccc(NC(=O)Nc2cccc(C(=O)Nc3cc(C(=O)Nc4ccc(S(=O)(=O)O)c5cc(S(=O)(=O)O)cc(S(=O)(=O)O)c45)ccc3C)c2)c1 [Suramin, suramin]",32.3,−17.4,−26.8,3.4,16.6 ± 1 µM,3.9,-4.25 kcal/mol,30.2 J/mol•K,17.6 µM,5.9 ± 1.2 µM,3.6,did not detect absorption,1.2,-0.03 ns,0.00 ns,-0.03 ns,0.04 ns,0.088 ns,0.15 ns,0.18 ns,"TR-FRET measured binding of C0-C2 to actin, effect of compound ([1]; 20 μM compound): almost completely eliminated; EC50 [4]: 4.8 ± 1.2 µM; Actin-MyBP-C Drug Δτ, Sub-optimal Screen 4 [5]: 0.13 ns; average change in lifetime, SD above the median of all compounds not excluded [5]: 6.5 SD; Difference, Screen 1 [5]: 0.12 ns; Difference, Screen 2 [5]: 0.16 ns; Difference, Sub-optimal Screen 3 [5]: 0.21 ns; Difference, Sub-optimal Screen 4 [5]: 0.09 ns; Kd (F-actin): ~200 µM; ITC interaction with F-actin (in words) (F-actin): weak interaction"
